Results on two molecules are retold here after patent US8647827B2, “Fluorescent substrates for neurotransmitter transporters” (Vanderbilt University, priority 2006, dated 2014).

Where two headings read alike, the source gives them in different places.

Data set [1] has as its target T1, NET (Homo sapiens, UniProt P23975). The following applies: previously reported, U.S. Publication No. 20040115703; cited from earlier work.
Data set [2] concerns the target DAT (Homo sapiens, UniProt Q01959). The following applies: previously reported, U.S. Publication No. 20040115703; cited from earlier work.
The target of data set [3] is T2, SERT (Homo sapiens, UniProt P31645). The following applies: cited from earlier work.
Target sequence in this assay (P31645 whole entry, species assumed): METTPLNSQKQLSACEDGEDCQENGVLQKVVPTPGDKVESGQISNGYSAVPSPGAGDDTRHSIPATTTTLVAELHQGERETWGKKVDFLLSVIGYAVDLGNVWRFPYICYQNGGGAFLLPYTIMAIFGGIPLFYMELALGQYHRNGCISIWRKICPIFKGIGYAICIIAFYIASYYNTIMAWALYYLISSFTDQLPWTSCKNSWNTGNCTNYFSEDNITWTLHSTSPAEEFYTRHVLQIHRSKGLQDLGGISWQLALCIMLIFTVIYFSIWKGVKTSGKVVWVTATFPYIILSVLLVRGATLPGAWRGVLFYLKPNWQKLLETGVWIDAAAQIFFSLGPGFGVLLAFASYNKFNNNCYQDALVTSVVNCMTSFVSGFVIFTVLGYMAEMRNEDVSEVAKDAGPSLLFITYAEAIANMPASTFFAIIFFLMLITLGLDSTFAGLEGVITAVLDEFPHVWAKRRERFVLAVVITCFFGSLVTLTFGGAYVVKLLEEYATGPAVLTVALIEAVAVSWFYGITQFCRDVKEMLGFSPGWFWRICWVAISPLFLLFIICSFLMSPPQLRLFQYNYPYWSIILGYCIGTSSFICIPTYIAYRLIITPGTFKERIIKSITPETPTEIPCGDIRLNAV
Data set [4] deals with T3, DAT (Rattus norvegicus, UniProt P23977).
T3 construct: expressed in transfected cells; host or cells: LLC cells
Put plainly: IDT307 accumulation/transport by fluorescence, DAT. Format: cell-based. The protocol: (§1) FIG. 7—Imaging IDT307 with Zeiss LSM-510 Confocal Meta Detector. LLC Cells expressing rDAT were exposed to 10 μM IDT307 for 1 hr before rinsing with KRH buffer and imaging with a Zeiss LSM-510 confocal microscope using the meta detector. Quantification of fluorescence at each wavelength for selected regions of interest was performed using ImageJ analysis software.
(§2) 4-(4-(dimethylamino)phenyl)-1-methylpyridinium iodide, referred to herein as IDT307, is a dye with optical activity that has been discussed by a number of different researchers (Bulgarevich et al., 1992; Kuo, 1978; Coe et al., 2003; Zauhar et al., 1995; Lyapustina et al., 1993). […] IDT307 fluorescent microscopy permits localization of transport activity in single cells and neuronal processes. The IDT307 fluorescent microscopy methods of the invention also permits analysis of many cells, while retaining information about single cells. The IDT307 fluorescence assays of the invention provide detailed mechanistic information about transport. For example, temporal and spatial resolution of transport, transport kinetics, affinity for substrate, turnover rates, surface expression, and binding constants may be measured. Furthermore, features such as voltage dependence of neurotransmitter accumulation can be assessed under voltage clamp using IDT307 fluorescent microscopy.

Data set [5] can be described thus: Fluorescence spectra of intracellular IDT307. Format: physicochemical. The protocol:
as §1
FIG. 8—Fluorescence Spectra of Intracellular IDT307. IDT307 maximum absorption=420 nm, maximum emission=510 nm.

In data set [6] the target is T2, SERT. In words: [3H]5-HT uptake inhibition in LLC cells stably expressing hSERT. Format: cell-based. Details: expressed in transfected cells. The note with it: [3H]5-HT 30 nM, 5 min at 37° C. The protocol: FIG. 2—[^3H]5-HT uptake inhibition by IDT307 of SERT. […] LLC cells stably expressing hSERT were incubated with [^3H]5-HT (30 nM) in the presence of increasing concentrations of IDT307 (10^−12 to 10^−3) for 5 min at 37° C. Specific uptake was defined as total uptake minus uptake in the presence of the inhibitor paroxetine 1 μM.
Target sequence in this assay (P31645 whole entry): as the sequence (P31645 whole entry, species assumed) above

Data set [7] deals with T2, SERT. In words: IDT307 accumulation/transport by fluorescence, SERT. It counts as cell-based. Also noted: expressed in transfected cells. How it is done:
FIG. 3—IDT307 accumulation using a FlexStation™ fluorimeter. IDT307 accumulation using the FlexStation fluorimeter (excitation 440 nm/emission filter 595 nm). LLC non-transfected and hSERT expressing (control) cells were cultured in separate wells of a 96-well plate until confluent. The accumulation of IDT307 (10 μM) in these wells was then monitored in the presence and absence of paroxetine (1 μM) using the FlexStation.
FIGS. 5A-C—Kinetics of IDT307 accumulation in hSERT using the FlexStation™ fluorimeter. Kinetics of IDT307 accumulation in hSERT using the FlexStation fluorimeter. hSERT expressing cells were cultured in wells of a 96-well plate until confluent. […] SERT specific accumulation for each concentration of IDT307 was then calculated from specific uptake values (total uptake—inhibitor treated uptake).
4-(4-(dimethylamino)phenyl)-1-methylpyridinium iodide, referred to herein as IDT307, is a dye with optical activity that has been discussed by a number of different researchers (Bulgarevich et al., 1992; Kuo, 1978; Coe et al., 2003; Zauhar et al., 1995; Lyapustina et al., 1993). […] The IDT307 fluorescence assays of the invention provide detailed mechanistic information about transport. For example, temporal and spatial resolution of transport, transport kinetics, affinity for substrate, turnover rates, surface expression, and binding constants may be measured. […]
Target sequence in this assay (P31645 whole entry): as the sequence (P31645 whole entry, species assumed) above

For data set [8], the target named is T1, NET. Put plainly: IDT307 accumulation/transport by time-resolved fluorescence microscopy in HEK cells expressing hNET. Also noted: expressed in transfected cells; host or cells: HEK cells. Format: cell-based.
Source text: as §2
Fluorescent microscopy is used to measure transport using IDT307 which is a fluorescent substrate for several neurotransmitter transporters. Cells that either endogenously or exogenously express a […] are isolated and plated on glass bottom Petri-dishes or multi-well plates that may typically be coated with poly-L-lysine or any other cell adhesive agent. Cells are typically cultured for three or more days. […]

T1 sequence (P23975 whole entry): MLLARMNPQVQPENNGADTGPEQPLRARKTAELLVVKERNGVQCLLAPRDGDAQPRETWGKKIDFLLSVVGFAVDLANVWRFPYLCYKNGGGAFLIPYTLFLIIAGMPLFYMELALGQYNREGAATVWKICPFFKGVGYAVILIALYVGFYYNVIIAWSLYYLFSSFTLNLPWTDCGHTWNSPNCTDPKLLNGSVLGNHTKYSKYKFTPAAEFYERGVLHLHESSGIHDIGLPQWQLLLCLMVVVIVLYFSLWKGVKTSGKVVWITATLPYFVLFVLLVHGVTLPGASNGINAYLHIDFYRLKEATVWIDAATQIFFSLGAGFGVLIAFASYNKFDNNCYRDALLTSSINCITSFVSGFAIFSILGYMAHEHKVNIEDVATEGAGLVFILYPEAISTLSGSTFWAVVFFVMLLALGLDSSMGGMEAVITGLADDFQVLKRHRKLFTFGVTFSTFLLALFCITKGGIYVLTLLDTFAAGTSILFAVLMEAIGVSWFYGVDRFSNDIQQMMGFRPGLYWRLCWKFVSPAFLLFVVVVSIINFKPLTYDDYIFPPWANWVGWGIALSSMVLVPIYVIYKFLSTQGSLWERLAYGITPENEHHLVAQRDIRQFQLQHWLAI
T3 sequence (P23977 whole entry): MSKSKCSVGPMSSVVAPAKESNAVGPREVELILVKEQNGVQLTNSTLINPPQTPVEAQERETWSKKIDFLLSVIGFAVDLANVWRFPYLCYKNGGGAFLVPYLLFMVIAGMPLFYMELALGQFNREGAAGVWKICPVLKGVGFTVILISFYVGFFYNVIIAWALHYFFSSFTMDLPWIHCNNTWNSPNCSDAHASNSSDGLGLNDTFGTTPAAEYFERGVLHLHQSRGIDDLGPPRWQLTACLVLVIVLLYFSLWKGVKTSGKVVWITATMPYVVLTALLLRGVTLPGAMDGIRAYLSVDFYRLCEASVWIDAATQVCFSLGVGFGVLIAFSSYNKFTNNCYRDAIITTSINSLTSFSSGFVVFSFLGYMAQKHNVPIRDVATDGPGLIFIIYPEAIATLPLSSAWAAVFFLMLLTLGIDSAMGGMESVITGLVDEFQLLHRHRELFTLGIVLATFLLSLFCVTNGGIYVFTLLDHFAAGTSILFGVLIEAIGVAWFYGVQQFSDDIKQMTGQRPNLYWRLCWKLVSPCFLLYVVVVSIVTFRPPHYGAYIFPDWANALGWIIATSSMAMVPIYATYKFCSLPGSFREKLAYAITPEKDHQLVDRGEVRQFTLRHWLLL
Chain of DAT (Homo sapiens, UniProt Q01959) (Q01959 whole entry, species assumed): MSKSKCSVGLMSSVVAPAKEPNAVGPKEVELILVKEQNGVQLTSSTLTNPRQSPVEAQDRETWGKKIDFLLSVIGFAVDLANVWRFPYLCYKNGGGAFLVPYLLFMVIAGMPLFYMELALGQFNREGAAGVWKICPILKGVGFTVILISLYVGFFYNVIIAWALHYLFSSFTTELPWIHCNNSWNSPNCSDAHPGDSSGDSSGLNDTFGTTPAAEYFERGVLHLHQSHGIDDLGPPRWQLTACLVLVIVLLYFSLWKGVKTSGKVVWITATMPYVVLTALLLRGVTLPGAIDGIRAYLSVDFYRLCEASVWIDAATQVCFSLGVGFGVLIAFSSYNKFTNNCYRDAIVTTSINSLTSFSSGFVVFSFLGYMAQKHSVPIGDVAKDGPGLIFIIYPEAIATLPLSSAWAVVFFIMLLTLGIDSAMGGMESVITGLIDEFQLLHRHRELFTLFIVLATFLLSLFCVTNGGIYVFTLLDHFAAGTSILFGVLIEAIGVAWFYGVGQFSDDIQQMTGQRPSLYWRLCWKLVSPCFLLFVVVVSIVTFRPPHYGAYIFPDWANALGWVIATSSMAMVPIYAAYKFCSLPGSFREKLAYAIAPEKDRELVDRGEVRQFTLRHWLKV

Regarding `CN(C)c1ccc(C=Cc2cc[n+](C)cc2)cc1` [ASP^+, 4-(4-dimethylaminostyrl)-N-methylpyridinium], the “transport by NET” value at NET [1] is “transported”. Moreover, the “transport by DAT” value on DAT [2] was “transported”. Moreover, the “effectiveness as a substrate for the serotonin transporter” value at SERT [3] was “only minimally effective as a substrate”. In addition, at SERT [3] (previously reported, U.S. Publication No. 20040115703), the “transport by SERT” value was “transported”.
On to `CN(C)c1ccc(-c2cc[n+](C)cc2)cc1.[I-]` [IDT307, 4-(4-(dimethylamino)phenyl)-1-methylpyridinium iodide], for which, on DAT [4], the “potency of IDT307 accumulation for DAT” value was “sub-mM potency” and the “transport by DAT” value is on record as “transported”. In data set [5], this molecule gave a maximum absorption of 420 nm and a maximum emission of 510 nm. Moreover, the “[3H]5-HT uptake inhibition” value on SERT [6] was “competes for [^3H]5-HT uptake”. In addition, on SERT [7], the “potency of IDT307 accumulation for SERT” value is reported as “sub-mM potency” and the “transport by SERT” value is “transported”. Besides, on NET [8], the “potency of IDT307 accumulation for hNET” value is given as “sub-mM potency” and the “transport by NET” value was “transported”.
